Source: patent publication US20180333389A1, “VITAMIN E COMPOSITIONS AND METHODS OF USE THEREFOR” (BIOELECTRON TECHNOLOGY CORPORATION, priority 2017, published 2018)
Like-named read-outs stand apart in the source and are kept apart here.

Legend:
[1] = test system: Q7 cells (ST HDH Q7/7; immortalized mouse striatal cells); test: Q7 striatal cell survival assay upon cystine deprivation; type: cell-based; conditions: for EC50: Q7 cell survival after 18 h in cystine-free medium, Cell Titer Glo, read-out: EC50 (nM) geometric mean (n ≥ 3 independent experiments); for potency in rescuing Q7 cells from oxidative stress relative to the RRR isomer: compared with RRR-alpha-tocopherol
Experimental: In neuronal cells excess extracellular glutamate inhibits the cystine/glutamate antiporter leading to intracellular cysteine depletion, GSH depletion, ROS production and cell death, a phenomenon termed oxidative glutamate toxicity or oxytosis. Q7 cells (ST HDH Q7/7; immortalized mouse striatal cells) challenged with cystine-free media recapitulate this phenotype. An initial screen was performed to identify compounds effective in rescuing Q7 cells from death resulting from cystine deprivation. This method is further described in Yonezawa et al., J. Neurochem 67, 566-573 (1996), and Li et al., J Neurosci., 23, 5816-5826 (2003).
DMEM (Catalog no. 11995-040), DMEM without Cystine (Catalog no. 21013-024), PBS (Phosphate buffered saline), Penicillin-streptomycin mix, L-Glutamine and Pyruvate were purchased from Gibco. Fetal Bovine Serum was obtained from Mediatech, Inc. Mouse striatum derived ST HDH Q7/7 (Q7) cells were obtained from Dr. M. MacDonald (Massachusetts General Hospital). Methionine and Vitamin K2 were purchased from Sigma Aldrich. Cell Titer Glo 2.0 was purchased from Promega. Geneticin (G418) Sulfate was purchased from Santa Cruz Biotechnology. Cell culture medium (Growth medium) was made by combining 50 mL Fetal Bovine Serum, 100 U/mL penicillin, 100 microgram/mL streptomycin and 400 microgram/mL Geneticin (G418) Sulfate; DMEM was added to make the volume up to 500 mL. Assay medium (without Cystine) was made by combining 50 mL Fetal Bovine Serum, 100 U/mL penicillin, 100 microgram/mL streptomycin, 4 mM L-Glutamine, 1 mM Pyruvate and 30 mg/L Methionine; DMEM without Cystine was added to make the volume up to 500 mL. During the course of the experiments, these solutions were stored at 4° C. The cells were grown in 10-cm diameter tissue culture-treated dishes. Every fourth day, the cells were subcultured by trypsinization and re-seeding at a cell density of 500,000 cells per dish.
Test samples were supplied in 1.5 mL glass vials. The compounds were diluted with an appropriate volume of DMSO to result in a 1 mM stock solution. Once dissolved, they were stored at −20 ° C.
Q7 cells were cultured routinely as described herein. For 384-well cell survival assays, cells were seeded in clear bottom, black wall 384-well tissue culture-treated polystyrene plates by resuspending a cell suspension at a density of 50,000 cells/mL in growth medium, then dispensing 60 microliters of cell suspension per well using either an electronic multichannel pipette or a Multidrop™ Combi Reagent Dispenser (ThermoFisher Scientific), corresponding to 3,000 cells/well. The cell-containing plates were incubated 5 hours at 33° C. in an atmosphere with 95% humidity and 5% CO2 to allow attachment of the cells to the culture plate. 5 hours after cell seeding into the 384-well assay plate, the cell culture medium was replaced by washing 2 times with 70 microliters/well PBS (without Ca^++ and Mg^++) using a BioTek ELx405 plate washer. After the final aspiration, 60 microliters/well of assay medium (without cystine) was added using the Multidrop™ Combi Reagent Dispenser. […]
After medium change to cystine-free medium and compound addition, cell plates were incubated at 33° C. in an atmosphere of 5% CO2 and 95% humidity. […] After 15 minutes of incubation at room temperature, the luminescence (100 ms integration time) per well was determined using the BioTek Synergy plate reader. […]

[2] = target: SQR (sulfide:quinone oxidoreductase) (Homo sapiens, UniProt Q9Y6N5); test: SQR activity of alpha-tocopherol quinones (rate of quinone reduction, absorbance at 266 nm); type: biochemical; conditions: for rate of quinone reduction by SQR: 100 μM quinone, 25 nM SQR, 25° C., pH 7.5
SQR (sulfide:quinone oxidoreductase), sequence (Q9Y6N5 whole entry): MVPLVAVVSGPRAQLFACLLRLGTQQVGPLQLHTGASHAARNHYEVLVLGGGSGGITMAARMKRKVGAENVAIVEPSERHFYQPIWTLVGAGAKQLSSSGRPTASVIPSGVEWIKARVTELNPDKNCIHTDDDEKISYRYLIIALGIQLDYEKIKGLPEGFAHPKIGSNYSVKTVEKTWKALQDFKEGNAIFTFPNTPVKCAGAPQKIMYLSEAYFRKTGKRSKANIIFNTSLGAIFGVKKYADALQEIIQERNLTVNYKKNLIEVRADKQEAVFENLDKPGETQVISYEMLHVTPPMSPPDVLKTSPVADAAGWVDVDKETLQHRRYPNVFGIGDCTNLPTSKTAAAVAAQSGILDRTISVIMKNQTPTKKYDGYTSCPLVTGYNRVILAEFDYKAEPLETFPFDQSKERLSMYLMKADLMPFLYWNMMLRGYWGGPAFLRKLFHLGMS
Experimental: SQR activity in the presence of varying concentrations of the isomers of quinone derivatives of Vitamin E was evaluated by monitoring the rate of quinone reduction using the absorbance of the quinone at 266 nm. Assays were conducted at 25° C. and pH 7.5 in a volume of 100 μL in the following buffer system: 100 mM Tris, 0.5 mM EDTA, 1.0% (w/v) Triton X-100 reduced. Sulfide (as Na2S nonahydrate) as reducing substrate and sulfite (as Na2SO3) as sulfur acceptor substrate were held constant at saturating concentrations of 200 μM and 2 mM, respectively. Quinone substrates were added to final concentrations between 0-200 μM from DMSO stock solutions resulting in 2% final concentration of DMSO (enzymatic rates were independent of DMSO concentration in this range). SQR was added at 25 nM.

[3] = test system: Mouse striatum-derived ST HDH Q7/7 (Q7) cells; test: Conversion of alpha-tocopherol to the corresponding quinone in Q7 cells; type: in vitro ADME; conditions: dosed at 1 μM, 3 μM and 10 μM, all three concentrations
Experimental: (§1) DMEM (Catalog no. 11995-040), Penicillin-streptomycin mix, Geneticin (G418) Sulfate were purchased from Thermo Fisher Scientific. Fetal Bovine Serum was obtained from Sigma Aldrich. Mouse striatum-derived ST HDH Q7/7 (Q7) cells were obtained from Dr. M. MacDonald (Massachusetts General Hospital). HepG2 cells were obtained from ATCC. Normal human fibroblast cells (NHF) were obtained from Coriell. Cell culture medium for Q7 cell was prepared by combining 50 mL Fetal Bovine Serum, 100 U/mL penicillin, 100 microgram/mL streptomycin, and 400 microgram/mL Geneticin (G418) Sulfate; DMEM was added to bring the final volume to 500 mL. For HepG2 cells and NHF, cell culture medium was made by combining 50 mL Fetal Bovine Serum, 100 U/mL penicillin, and 100 microgram/mL streptomycin; DMEM was added to bring the final volume to 500 mL. During the course of the experiments, these solutions were stored at 4° C. […]
(§2) Quantification of compounds was determined by mass spectrometry.
(§3) The rate of conversion of R,R,R-alpha-tocopherol (black bars) and a 1:1:1:1:1:1:1:1 equimolar mixture of all 8 stereoisomers of alpha-tocopherol (grey bars) to their corresponding quinones was measured in Q7 cells and is shown in FIG. 4. The percent of total cellular compound in the quinone form was measured at three different dosed concentrations: 1 μM, 3 μM, and 10 μM. […]

HepG2 cells = test: Conversion of alpha-tocopherol to the corresponding quinone in HepG2 cells; type: in vitro ADME; conditions: dosed at 1 μM, 3 μM and 10 μM, all three concentrations
Experimental: as §1, §2
as §3, with “HepG2” for “Q7”, “2.” for “4.”

[4] = test system: Normal human fibroblast cells (NHF); test: Conversion of alpha-tocopherol to the corresponding quinone in NHF cells; type: in vitro ADME
Experimental: DMEM (Catalog no. 11995-040), Penicillin-streptomycin mix, Geneticin (G418) Sulfate were purchased from Thermo Fisher Scientific. Fetal Bovine Serum was obtained from Sigma Aldrich. Mouse striatum-derived ST HDH Q7/7 (Q7) cells were obtained from Dr. M. MacDonald (Massachusetts General Hospital). HepG2 cells were obtained from ATCC. Normal human fibroblast cells (NHF) were obtained from Coriell. Cell culture medium for Q7 cell was prepared by combining 50 mL Fetal Bovine Serum, 100 U/mL penicillin, 100 microgram/mL streptomycin, and 400 microgram/mL Geneticin (G418) Sulfate; DMEM was added to bring the final volume to 500 mL. For HepG2 cells and NHF, cell culture medium was made by combining 50 mL Fetal Bovine Serum, 100 U/mL penicillin, and 100 microgram/mL streptomycin; DMEM was added to bring the final volume to 500 mL. During the course of the experiments, these solutions were stored at 4° C. The cells were grown in 150-cm^2 tissue culture-treated flasks until they reached 90% confluency.
Test samples were supplied in 1.5 mL glass vials. The compounds were diluted with an appropriate volume of DMSO to result in a 10 mM stock solution. Once dissolved, they were stored at −20 ° C.
Test samples were applied according to the following protocol:
Q7, HepG2, and NHF Cells were seeded separately in clear bottom, 96-well tissue culture-treated polystyrene plates by resuspending each cell suspension at a density of 200,000 cells/mL in cell culture medium, then dispensing 50 microliters of cell suspension per well using an electronic multichannel pipette, corresponding to 10,000 cells/well. […]
as §2
as §3, with “NHF” for “Q7”, “3.” for “4.”, “two” for “three”, “concentrations:” for “concentrations: 1 μM,”, “μM” for “μM,”

SMILES: Cc1c(C)c2c(c(C)c1O)CCC(C)(CCCC(C)CCCC(C)CCCC(C)C)O2 (single isomer, unassigned) [Equal mixture of all 8 stereoisomers of alpha-tocopherol, all-rac alpha-tocopherol]
- EC50 [1]: 313 nM
- potency in rescuing Q7 cells from oxidative stress relative to the RRR isomer [1]: approximately half as potent as the RRR isomer

SMILES: CC1=C(C)C(=O)C(CC[C@](C)(O)CCC[C@H](C)CCC[C@H](C)CCCC(C)C)=C(C)C1=O [R,R,R-alpha-tocopherol quinone, (R,R,R)-alpha-tocopherol quinone]
- reduction rate relative to the corresponding S,R,R stereoisomer ([2]; 100 μM each): more than twice
- rate of quinone reduction by SQR [2]: around 125 nM/s
- rate of SQR reduction as a function of concentration ([2]; in the absence of the S,R,R isomer): increases with increasing R,R,R-alpha-tocopherol quinone concentration
- rate of SQR reduction, upper limit with increasing concentration of the R,R,R isomer ([2]; in the presence of S,R,R-alpha-tocopherol quinone): ≤ 100 nM/s

SMILES: Cc1c(C)c2c(c(C)c1O)CC[C@@](C)(CCC[C@H](C)CCC[C@H](C)CCCC(C)C)O2 [RRR-alpha-tocopherol, (R,R,R)-alpha-tocopherol]
- EC50 ([1]; Mus musculus): 175 nM
- percent of compound converted to the quinone form, compared with mixture of all 8 stereoisomers [3]: higher
- percent of compound converted to the quinone form, compared with mixture of all 8 stereoisomers (HepG2 cells): higher
- percent of compound converted, times higher than the mixture of all 8 stereoisomers ([4]; 3 μM): approximately 3 times
- percent of compound converted, times higher than the mixture of all 8 stereoisomers ([4]; 10 μM): approximately 2 times
- percent of compound converted to the quinone form, compared with mixture of all 8 stereoisomers ([4]; dosed at 3 μM and 10 μM, both concentrations): higher

SMILES: CC1=C(C)C(=O)C(CC[C@](C)(O)CCC[C@H](C)CCC[C@H](C)CCCC(C)C)=C(C)C1=O [S,R,R-alpha-tocopherol quinone, reference compound]
- rate of quinone reduction by SQR [2]: about 50 nM/s
- effect on the activity of the R,R,R isomer (SQR activity) ([2]; 1:1 mixture versus pure R,R,R isomer): inhibitory effect

SMILES: Cc1c(C)c2c(c(C)c1O)CC[C@](C)(CCC[C@H](C)CCC[C@H](C)CCCC(C)C)O2 [SRR-alpha-tocopherol]
- EC50 ([1]; Mus musculus): 372 nM
- potency in rescuing Q7 cells from oxidative stress relative to the RRR isomer [1]: approximately half as potent as the RRR isomer
